# Results published in patent US9242984B2, “Pyrazolyl derivatives as Syk inhibitors” (Merck Sharp & Dohme Corp., priority 2012, dated 2016).
# Molecular target: T1, recombinant human Syk (GST-hSyk fusion protein) (Homo sapiens, UniProt P43405)
# T1 construct: purchased Carna Biosciences 08-176
# Assay: Homogeneous Time-Resolved Fluorescence (HTRF) assay for the recombinant human Syk enzyme
# Assay type: biochemical
# Settings: IC50 class; 10-dose titration, 25 μM ATP; read-out: rhSYK Activity
# Method in brief: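 GST-hSyk (5 pM) preincubated 10 min with compound (0.1% DMSO) in 15 mM Tris-HCl pH 7.5, 2 mM DTT; reaction started with 250 nM biotinylated peptide, 5 mM Mg, 25 μM ATP, 45 min, room temperature. EDTA quench, Eu-anti-phosphotyrosine/SA-APC HTRF read after 30 min; IC50 from 10-dose titration (10 μM–0.508 nM), four-parameter fit.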
row,IC50 [µM],Compound
1,≤ 0.1,"CNC(=O)[C@@H](O)Cn1cc(-c2cc(C)cc(Nc3nccc(C(F)(F)F)n3)c2)cn1 [Example 6.11, (2S)-2-hydroxy-N-methyl-3-[4-(3-methyl-5-{[4-(trifluorometh-yl)pyrimidin-2-yl]amino}phenyl)-1H-pyrazol-1-yl]propanamide]"
2,≤ 0.1,"Cc1cc(Nc2nccc(C(F)F)n2)cc(-c2cnn(CC(C)(O)CC#N)c2)c1 (stereo not shown) [Example 20.8, 4-[4-(3-{[4-(difluoromethyl)pyrimidin-2-yl]amino}-5-methylphenyl)-1H-pyrazol-1-yl]-3-hydroxy-3-methylbutanenitrile]"
3,≤ 0.1,"Cc1cc(Nc2cc(C3CC3)ccn2)nc(-c2cnn(CC3(O)CCC3)c2)c1 [Example 29.7, 1-[(4-{6-[(4-cyclopropylpyridin-2-yl)amino]-4-methylpyridin-2-yl}-1H-pyrazol-1-yl)methyl]cyclobutanol]"
4,≤ 0.1,"Cc1cc(Nc2nccc(C3CC3)n2)cc(-c2cnn(C[C@H](O)C(N)=O)c2)c1 [Example 6.5, (2S)-3-(4-{3-[(4-cyclopropyl-pyrimidin-2-yl)amino]-5-methylphenyl}-1H-pyrazol-1-yl)-2-hydroxypropan-amide]"
5,≤ 0.1,"Cc1cc(Nc2nccc(C(F)F)n2)cc(-c2cnn(CC(C)(O)C(C)(C)O)c2)c1 (stereo not shown) [Example 21.6, 1-[4-(3-{[4-(difluoromethyl)pyrimidin-2-yl]amino}-5-methylphenyl)-1H-pyrazol-1-yl]-2,3-dimethylbutane-2,3-diol]"
6,≤ 0.1,"Cc1cc(Nc2nccc(C(F)F)n2)cc(-c2cnn(CC(C)(O)CC#N)c2)c1 (stereo not shown) [Example 20.7, 4-[4-(3-{[4-(difluoromethyl)pyrimidin-2-yl]amino}-5-methylphenyl)-1H-pyrazol-1-yl]-3-hydroxy-3-methylbutanenitrile]"
7,≤ 0.1,"Cc1cc(Nc2nccc(C(F)(F)F)n2)cc(-c2cnn(CC3OC(=O)NC3(C)C)c2)c1 (stereo not shown) [Example 3.99, 4,4-dimethyl-5-{[4-(3-methyl-5-{[4-(trifluoromethyl)pyrimidin-2-yl]amino}phenyl)-1H-pyrazol-1-yl]methyl}-1,3-oxazolidin-2-one]"
8,0.1 to 1,"COc1ccc(OCC(O)Cn2cc(-c3cc(C)cc(Nc4nccc(C(F)(F)F)n4)c3)cn2)cc1 (stereo not shown) [Example 5.11, 1-(4-methoxy-phenoxy)-3-[4-(3-methyl-5-{[4-(trifluoromethyl)-pyrimidin-2-yl]amino}phenyl)-1H-pyrazol-1-yl]propan-2-ol]"
9,≤ 0.1,"COCC(O)Cn1cc(-c2cc(C)cc(Nc3nccc(C(F)F)n3)c2)cn1 (stereo not shown) [Example 5.22, 1-[4-(3-{[4-(difluoromethyl)pyrimidin-2-yl]amino}-5-methylphenyl)-1H-pyrazol-1-yl]-3-methoxypropan-2-ol]"
10,≤ 0.1,"Cc1cc(Nc2nccc(C(F)(F)F)n2)cc(-c2cnn(CC3OC(=O)NC3C)c2)c1 (stereo not shown) [Example 3.120, 4-methyl-5-{[4-(3-methyl-5-{[4-(trifluoromethyl)pyrimidin-2-yl]amino}phenyl)-1H-pyrazol-1-yl]methyl}-1,3-oxazolidin-2-one]"
11,≤ 0.1,"COc1ccnc(Nc2cc(C)cc(-c3cnn(C[C@H](O)C(=O)O)c3)c2)n1 [Example 11.2, (2S)-2-hydroxy-3-(4-{3-[(4-methoxy-pyrimidin-2-yl)amino]-5-methylphenyl}-1H-pyrazol-1-yl)-propanoic acid]"
12,≤ 0.1,"O=C(O)CCc1cnn(-c2cccc(Nc3cc(C(F)(F)F)ccn3)n2)c1 [Example 18.1, 3-(1-(6-((4-(trifluoromethyl)pyridin-2-yl)amino)pyridin-2-yl)-1H-pyrazol-4-yl)propanoic acid]"
13,≤ 0.1,"Cc1cc(Nc2nccc(C(F)(F)F)n2)cc(-c2cnn(C[C@H](O)C(N)=O)c2)c1 [Example 8.4, (2S)-2-hydroxy-3-[4-(3-methyl-5-{[4-(trifluoromethyl)-pyrimidin-2-yl]amino}-phenyl)-1H-pyrazol-1-yl]propanamide]"
14,≤ 0.1,"Cc1cc(Nc2nccc(C(C)(F)F)n2)cc(-c2cnn(CC(C)(O)CC#N)c2)c1 (stereo not shown) [Example 20.9, 4-[4-(3-{[4-(1,1-difluoroethyl)pyrimidin-2-yl]amino}-5-methylphenyl)-1H-pyrazol-1-yl]-3-hydroxy-3-methylbutanenitrile]"
15,0.1 to 1,"Cc1cc(Nc2nccc(C(F)(F)F)n2)cc(-n2cc(C3(O)CCC(C(=O)O)C(C)(C)C3)cn2)c1 (stereo not shown) [Example 19.14, 4-hydroxy-2,2-dimethyl-4-[1-(3-methyl-5-{[4-(trifluoromethyl)pyrimidin-2-yl]amino}phenyl)-1H-pyrazol-4-yl]cyclohexanecarboxylic acid]"
16,≤ 0.1,"CCC(C)(O)Cn1cc(-c2cc(C)cc(Nc3nccc(C(F)F)n3)c2)cn1 (stereo not shown) [Example 3.113, 1-[4-(3-{[4-(difluoromethyl)pyrimidin-2-yl]amino}-5-methylphenyl)-1H-pyrazol-1-yl]-2-methylbutan-2-ol]"
17,≤ 0.1,"Cc1cc(Nc2nccc(C(F)F)n2)cc(-c2cnn(CC(O)CO)c2)c1 (stereo not shown) [Example 3.112, 3-[4-(3-{[4-(difluoromethyl)pyrimidin-2-yl]amino}-5-methylphenyl)-1H-pyrazol-1-yl]propane-1,2-diol]"
18,≤ 0.1,"Cc1cc(Nc2nccc(C(F)F)n2)cc(-c2cnn(C(C)C(C)(O)CO)c2)c1 (stereo not shown) [Example 22.3, 3-[4-(3-{[4-(difluoromethyl)pyrimidin-2-yl]amino}-5-methylphenyl)-1H-pyrazol-1-yl]-2-methylbutane-1,2-diol]"
19,≤ 0.1,"Cc1cc(Nc2nccc(C(F)(F)F)n2)cc(-c2cnn(CC(O)C(F)(F)F)c2)c1 (racemic) [Example 3.43, 1,1,1-trifluoro-3-[4-(3-methyl-5-{[4-(trifluoromethyl)pyrimidin-2-yl]amino}phenyl)-1H-pyrazol-1-yl]propan-2-ol]"
20,≤ 0.1,"COc1nc(Nc2cc(C)cc(-c3cnn(C[C@H](O)C(=O)O)c3)c2)ncc1Cl [Example 11.6, (2S)-3-(4-{3-[(5-chloro-4-methoxy-pyrimidin-2-yl)-amino]-5-methyl-phenyl}-1H-pyrazol-1-yl)-2-hydroxy-propanoic acid]"
21,≤ 0.1,"Cc1cc(Nc2nccc(OCCO)n2)cc(-c2cnn(C3CCC(C(N)=O)CC3)c2)c1 (stereo not shown) [Example 8.5, 4-[4-(3-{[4-(2-hydroxy-ethoxy)pyrimidin-2-yl]amino}-5-methylphenyl)-1H-pyrazol-1-yl]-cyclo-hexanecarboxamide]"
22,≤ 0.1,"Cc1cc(Nc2nccc(C(F)(F)F)n2)cc(-c2cnn(CC3(C)CNC(=O)O3)c2)c1 (stereo not shown) [Example 3.117, 5-methyl-5-{[4-(3-methyl-5-{[4-(trifluoromethyl)pyrimidin-2-yl]amino}phenyl)-1H-pyrazol-1-yl]methyl}-1,3-oxazolidin-2-one]"

# The next lines start with the compound.
row,Compound,IC50 [µM]
1,"COc1ccnc(Nc2cc(C)cc(-c3cnn(CC4CNC(=O)O4)c3)c2)n1 (stereo not shown) [Example 2.21, 5-[(4-{3-[(4-methoxypyrimidin-2-yl)amino]-5-methylphenyl}-1H-pyrazol-1-yl)methyl]-1,3-oxazolidin-2-one]",≤ 0.1
2,N-[2-methyl-6-(1-methyl-1H-pyrazol-4-yl)pyridin-4-yl]-4-(trifluoromethyl)-pyrimidin-2-amine [Example 1.43],0.1 to 1
3,"Cc1cc(Nc2ncc(Cl)c(C)n2)cc(-c2cnn(C[C@](C)(O)CO)c2)c1 [Example 2.97, (2S)-3-(4-{3-[(5-chloro-4-methylpyrimidin-2-yl)amino]-5-methylphenyl}-1H-pyrazol-1-yl)-2-methylpropane-1,2-diol]",≤ 0.1
4,"Cc1cc(Nc2nccc(C(F)F)n2)cc(-c2cnn(CCN)c2)c1 [Example 2.82, N-{3-[1-(2-aminoethyl)-1H-pyrazol-4-yl]-5-methylphenyl}-4-(difluoromethyl)pyrimidin-2-amine]",≤ 0.1
5,"Cc1cc(Nc2cc(C(F)(F)F)ccn2)nc(-c2cnn(CCC(C)C)c2)c1 [Example 1.14, 4-methyl-6-[1-(3-methylbutyl)-1H-pyrazol-4-yl]-N-[4-(trifluoromethyl)pyridin-2-yl]pyridin-2-amine]",≤ 0.1
6,"Cc1ccnc(Nc2cccc(-c3cnn(CCC(=O)O)c3)n2)c1 [Example 1.18, 3-(4-{6-[(4-methylpyridin-2-yl)amino]pyridin-2-yl}-1H-pyrazol-1-yl)propanoic acid]",0.1 to 1
7,"Cc1cc(Nc2nccc(C(F)(F)F)n2)cc(-c2c[nH]nc2C)c1 [Example 2.39, N-[3-methyl-5-(3-methyl-1H-pyrazol-4-yl)phenyl]-4-(trifluoromethyl)pyrimidin-2-amine]",0.1 to 1
8,"CCOC(=O)CCn1cc(-c2cccc(Nc3nccc(C(F)(F)F)n3)c2)cn1 [Example 2.2, ethyl 3-[4-(3-{[4-(trifluoromethyl)-pyrimidin-2-yl]-amino}phenyl)-1H-pyrazol-1-yl]-propanoate]",0.1 to 1
9,"Cc1cc(Nc2ncc(F)c(C)n2)cc(-c2cnn(CC3CNC(=O)O3)c2)c1 (stereo not shown) [Example 2.22, 5-[(4-{3-[(5-fluoro-4-methylpyrimidin-2-yl)amino]-5-methylphenyl}-1H-pyrazol-1-yl)methyl]-1,3-oxazolidin-2-one]",≤ 0.1
10,"Cc1cc(Nc2nccc(C)n2)cc(-c2cnn(C3CCC(C(=O)O)CC3)c2)c1 (stereo not shown) [Example 1.58, 4-(4-{3-methyl-5-[(4-methylpyrimidin-2-yl)amino]phenyl}-1H-pyrazol-1-yl)cyclohexanecarboxylic acid]",≤ 0.1
11,"Cc1cc(Nc2nccc(C)n2)cc(-c2cnn(CC3CNC(=O)O3)c2)c1 (stereo not shown) [Example 2.18, 5-[(4-{3-methyl-5-[(4-methylpyrimidin-2-yl)amino]phenyl}-1H-pyrazol-1-yl)methyl]-1,3-oxazolidin-2-one]",≤ 0.1
12,"Cc1cc(Nc2ncccn2)cc(-c2cnn(Cc3ccc(O)cc3)c2)c1 [Example 2.58, 4-({4-[3-methyl-5-(pyrimidin-2-ylamino)phenyl]-1H-pyrazol-1-yl}methyl)phenol]",≤ 0.1
